Test system: DMBA-induced mammary cancer
Assay: Chemoprevention of DMBA-induced mammary carcinogenesis in rats
Assay type: in vivo, Sprague-Dawley rats
Conditions: 0.5 ml of 0.7% solution intragastric, five times a week, twenty weeks after DMBA
Procedure: 13-methyltetradecanoic acid (iso-C15) was prepared by dissolving in NaOH solution and then in 0.35% Tween 80 with pH 7.5.
Fifty female Sprague-Dawley rats were maintained on laboratory chow. At 50 days of age, rats were given a single dose (5 mg) of DMBA (Sigma Chemical Co., St. Louis. Mo.) via an intragastric tube. Seven days after DMBA administration, the rats were randomly divided into two groups of 25. Each rat in the control group was given 0.5 ml of 0.35% Tween 80 five times a week via an intragastric tube throughout the experiment, while each in the test group was given 0.5 ml iso-C15 solution of concentration 0.7%, five times a week. Food and water were available ad libitum. Twenty weeks after DMBA administration, all rats were scarified, and all palpable tumors were removed.

CC(C)CCCCCCCCCCCC(=O)O [iso-C15, 13-methyltetradecanoic acid]
No. of rats with tumors (25 rats): 3 | Mean tumor weight: 0.8 ± 1.3 g | No. of tumors: 4 | No. of tumors per rat: 0.2 ± 0.1 | No. of tumors/tumor bearing rat: 1.3 ± 0.5 | tumor incidence: 12%
